Measured values as given in patent US8362051B2, “Mold-resistant wallboard” (Rohm and Haas Company, priority 2007, dated 2013).

Columns and labels:
Assay type in all cases: cell-based
mold [1] = test: ASTM 3273 fungal growth test on paper sheets, biocide added to pulp slurry; design: key to ASTM 3273 rating Week 1: 0: 100% mold coverage; 1: 90%; 2: 80%; 3: 70%; 4: 60%; 5: 50%; 6: 40%; 7: 30%; 8: 20%; 9: 10%; 10: no mold growth coverage; 8: 20% mold coverage; 9: 10% mold coverage; 10: no mold growth; key to ASTM 3273 rating Week 2 / ASTM 3273 rating Week 3 / ASTM 3273 rating Week 4: 100% mold coverage; 1: 90% mold coverage; 2: 80% mold coverage; 3: 70% mold coverage; 4: 60% mold coverage; 50% mold coverage; 6: 40% mold coverage; 7: 30% mold coverage; 8: 20% mold coverage; 9: 10% mold coverage; 10: no mold growth; conditions: for ASTM 3273 rating Week 1 / ASTM 3273 rating Week 2 / ASTM 3273 rating Week 3 / ASTM 3273 rating Week 4: average of three sheets
Experimental: (§1) The biocides can be evaluated in the following examples by adding to a 0.4 wt % pulp slurry in water (100% recycle) typically used for gypsum wallboard facing paper. The slurry is filtered through a screen to drain the water from the stock and the resulting paper mat is blotted, couched, and dried to form a paper sheet with a basis weight of approximately 40 lb/1000 ft2. Three sheets per condition are prepared. High Performance Liquid Chromatography (HPLC) is used to determine the amount of biocide present in each sheet. The paper sheets are evaluated for fungal growth via ASTM 3273, currently the industry standard for mold-resistant wallboard, as well as the standard TAPPI T-487 fungal efficacy test.
(§2) The values in Tables 1 and 2 below represent data from samples made substantially according to the preceding protocol. The average concentration of active biocide in the paper and the average test rating based on three paper sheets are shown. Based on tables 1 and 2, approximately 4-4.5 times more DIMTS active was needed in the paper sheet than OIT before no mold growth was observed throughout the entire testing period.
(§3) For ASTM 3273, a 4-week test, the following rating scale applies: • 0—100% mold coverage • 1—90% mold coverage • 2—80% mold coverage • 3—70% mold coverage • 4—60% mold coverage • 5—50% mold coverage • 6—40% mold coverage • 7—30% mold coverage • 8—20% mold coverage • 9—10% mold coverage • 10—no mold growth For TAPPI T-487, a 3-week test, the following rating scale applies: • 0—no mold growth • 1—25% mold coverage • 2—50% mold coverage • 3—75% mold coverage • 4—100% mold coverage

mold [2] = test: TAPPI T-487 fungal efficacy test on paper sheets, biocide added to pulp slurry; design: key: coverage; 8: 20% mold coverage; 9: 10% mold coverage; 10: no mold growth; conditions: average of three sheets
Experimental: as §1, §2, §3

mold [3] = test: TAPPI T-487 test on surface-treated paper; design: key to TAPPI T-487 rating Week 1 / TAPPI T-487 rating Week 2 / TAPPI T-487 rating Week 3: 100% mold coverage; 1: 90% mold coverage; 2: 80% mold coverage; 3: 70% mold coverage; 4: 60% mold coverage; 50% mold coverage; 6: 40% mold coverage; 7: 30% mold coverage; 8: 20% mold coverage; 9: 10% mold coverage; 10: no mold growth; conditions: surface treatment, average of three sheets
Experimental: The papers of this example were prepared via surface treatment. The values in Table 3 below represent the average concentration of active biocide in the paper and the average […]-487 test rating based on three paper sheets.

mold [4] = test: ASTM-G21 Fungal Resistant Test Method on paper handsheets; design: key: 0: None; Traces of growth (<10%); 2: Light growth (10-30%); Medium growth (30-60%); 4: Heavy growth (60-complete coverage); conditions: for Mold Resistance Rating Week 1 A / Mold Resistance Rating Week 2 A: replicate A; for Mold Resistance Rating Week 1 B / Mold Resistance Rating Week 2 B: replicate B
Experimental: Results are compared with paper hand sheets incorporating DIMTS in the same manner, as well as handsheets with no biocide added. Handsheets are formed using a commercial handsheet mold which makes sheets 8×8 inches in area. The weights of the handsheets are 11-12 lbs/1000 ft^2 representing the typical basis weight of just the liner (outer facing plys) of the multi-ply wallboard paper. The 3:1 carbendazim/IPBC blend is added to the paper slurry (0.7 wt %) prior to forming the handsheets. Recycled news print paper is used as the source of fiber for handsheets. High Performance Liquid Chromatography (HPLC) is used to determine the amount of biocide present in each sheet, however, this method is not capable of detecting the levels of IPBC in the handsheets, therefore only carbendazim values are reported in Table 4 as weight of active (mg) per kg of paper. The handsheets are evaluated for fungal resistance using ASTM G21 over a two-week test period. A and B represent replicate analyses of same handsheet in Table 4.

Cc1ccc(S(=O)(=O)C(I)I)cc1 [DIMTS, diiodomethyltolylsulfone]
1 (Traces of growth (<10%)): Mold Resistance Rating Week 1 A (mold [4]; 281 ppm active in handsheet) | Mold Resistance Rating Week 1 B (mold [4]; 281 ppm active in handsheet) | Mold Resistance Rating Week 1 A (mold [4]; 297 ppm active in handsheet) | Mold Resistance Rating Week 1 B (mold [4]; 297 ppm active in handsheet) | Mold Resistance Rating Week 2 A (mold [4]; 354 ppm active in handsheet) | Mold Resistance Rating Week 2 B (mold [4]; 354 ppm active in handsheet)
2 (50% mold coverage): TAPPI T-487 rating Week 2 (mold [2]; 386 ppm in paper sheet) | TAPPI T-487 rating Week 2 (mold [2]; 553 ppm in paper sheet) | TAPPI T-487 rating Week 1 (mold [3]; 43 ppm in paper)
7 (30% mold coverage): ASTM 3273 rating Week 3 (mold [1]; 660 ppm in paper sheet)
10: ASTM 3273 rating Week 1 (mold [1]; 370 ppm in paper sheet) | ASTM 3273 rating Week 1 (mold [1]; 660 ppm in paper sheet) | ASTM 3273 rating Week 1 (mold [1]; 1272 ppm in paper sheet) | ASTM 3273 rating Week 2 (mold [1]; 1272 ppm in paper sheet) | ASTM 3273 rating Week 3 (mold [1]; 1272 ppm in paper sheet) | ASTM 3273 rating Week 4 (mold [1]; 1272 ppm in paper sheet)
4 (100% mold coverage): TAPPI T-487 rating Week 2 (mold [3]; 43 ppm in paper) | TAPPI T-487 rating Week 3 (mold [3]; 43 ppm in paper)
0 (100% mold coverage): ASTM 3273 rating Week 3 (mold [1]; 370 ppm in paper sheet) | ASTM 3273 rating Week 4 (mold [1]; 370 ppm in paper sheet)
8 (20% mold coverage): ASTM 3273 rating Week 2 (mold [1]; 370 ppm in paper sheet) | ASTM 3273 rating Week 2 (mold [1]; 660 ppm in paper sheet)
0: TAPPI T-487 rating Week 1 (mold [2]; 386 ppm in paper sheet) | TAPPI T-487 rating Week 1 (mold [2]; 553 ppm in paper sheet) | TAPPI T-487 rating Week 1 (mold [2]; 855 ppm in paper sheet) | TAPPI T-487 rating Week 2 (mold [2]; 855 ppm in paper sheet) | TAPPI T-487 rating Week 3 (mold [2]; 855 ppm in paper sheet) | TAPPI T-487 rating Week 1 (mold [3]; 563 ppm in paper) | TAPPI T-487 rating Week 2 (mold [3]; 563 ppm in paper) | TAPPI T-487 rating Week 3 (mold [3]; 563 ppm in paper) | TAPPI T-487 rating Week 1 (mold [3]; 5389 ppm in paper) | TAPPI T-487 rating Week 2 (mold [3]; 5389 ppm in paper) | TAPPI T-487 rating Week 3 (mold [3]; 5389 ppm in paper) | Mold Resistance Rating Week 1 A (mold [4]; 354 ppm active in handsheet) | Mold Resistance Rating Week 1 B (mold [4]; 354 ppm active in handsheet) | Mold Resistance Rating Week 1 A (mold [4]; 732 ppm active in handsheet) | Mold Resistance Rating Week 1 B (mold [4]; 732 ppm active in handsheet) | Mold Resistance Rating Week 2 A (mold [4]; 732 ppm active in handsheet) | Mold Resistance Rating Week 2 B (mold [4]; 732 ppm active in handsheet) | Mold Resistance Rating Week 1 A (mold [4]; 748 ppm active in handsheet) | Mold Resistance Rating Week 1 B (mold [4]; 748 ppm active in handsheet) | Mold Resistance Rating Week 2 A (mold [4]; 748 ppm active in handsheet) | Mold Resistance Rating Week 2 B (mold [4]; 748 ppm active in handsheet)
6 (40% mold coverage): ASTM 3273 rating Week 4 (mold [1]; 660 ppm in paper sheet)
4-4.5 times: DIMTS active needed in the paper sheet relative to OIT before no mold growth was observed throughout the entire testing period (mold [1]; approximately, based on tables 1 and 2 (ASTM 3273 and TAPPI T-487))
4 (Heavy growth (60-complete coverage)): Mold Resistance Rating Week 2 A (mold [4]; 281 ppm active in handsheet) | Mold Resistance Rating Week 2 B (mold [4]; 281 ppm active in handsheet) | Mold Resistance Rating Week 2 A (mold [4]; 297 ppm active in handsheet) | Mold Resistance Rating Week 2 B (mold [4]; 297 ppm active in handsheet)
3 (75% mold coverage): TAPPI T-487 rating Week 3 (mold [2]; 386 ppm in paper sheet) | TAPPI T-487 rating Week 3 (mold [2]; 553 ppm in paper sheet)
